Laboratory results from the supplement of paper PMC11451515.

Tested on: SEM cells
Assay: cell viability relative to DMSO control; higher = less cytotoxic
Details: 48 h
In short: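 Viability is expressed as a percentage of DMSO wells within each plate, and cell-free wells serve as background. Seeding densities in the 1536-well plates (5 μl) were 500 cells/well for NOMO1 or SEM leukemia cells and 1000 cells/well for P12-Ichikawa. Each line was adapted for at least four passages in each medium. Library compounds in DMSO were pin-dosed at 47 μM to 0.79 nM (11 points, threefold), and CellTiter-Glo One luminescence was read after 48 h at 37°C.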

[1] = HPLM + 10% dialyzed FBS, 0.000781 µM
[2] = HPLM + 10% dialyzed FBS, 0.00234 µM
[3] = HPLM + 10% dialyzed FBS, 0.00702 µM
[4] = HPLM + 10% dialyzed FBS, 0.0211 µM
[5] = HPLM + 10% dialyzed FBS, 0.0632 µM
[6] = HPLM + 10% dialyzed FBS, 0.19 µM
[7] = HPLM + 10% dialyzed FBS, 0.569 µM
[8] = HPLM + 10% dialyzed FBS, 1.71 µM
[9] = HPLM + 10% dialyzed FBS, 5.12 µM
[10] = HPLM + 10% dialyzed FBS, 15.4 µM
[11] = HPLM + 10% dialyzed FBS, 46.1 µM
[12] = RPMI 5 mM glucose + 10% FBS, 0.000781 µM
[13] = RPMI 5 mM glucose + 10% FBS, 0.00234 µM
[14] = RPMI 5 mM glucose + 10% FBS, 0.00702 µM
[15] = RPMI 5 mM glucose + 10% FBS, 0.0211 µM
[16] = RPMI 5 mM glucose + 10% FBS, 0.0632 µM
[17] = RPMI 5 mM glucose + 10% FBS, 0.19 µM
[18] = RPMI 5 mM glucose + 10% FBS, 0.569 µM
[19] = RPMI 5 mM glucose + 10% FBS, 1.71 µM
[20] = RPMI 5 mM glucose + 10% FBS, 5.12 µM
[21] = RPMI 5 mM glucose + 10% FBS, 15.4 µM
[22] = RPMI 5 mM glucose + 10% FBS, 46.1 µM
[23] = RPMI 5 mM glucose + 10% dialyzed FBS, 0.000781 µM
[24] = RPMI 5 mM glucose + 10% dialyzed FBS, 0.00234 µM
[25] = RPMI 5 mM glucose + 10% dialyzed FBS, 0.00702 µM
[26] = RPMI 5 mM glucose + 10% dialyzed FBS, 0.0211 µM
[27] = RPMI 5 mM glucose + 10% dialyzed FBS, 0.0632 µM
[28] = RPMI 5 mM glucose + 10% dialyzed FBS, 0.19 µM
[29] = RPMI 5 mM glucose + 10% dialyzed FBS, 0.569 µM
[30] = RPMI 5 mM glucose + 10% dialyzed FBS, 1.71 µM
[31] = RPMI 5 mM glucose + 10% dialyzed FBS, 5.12 µM
[32] = RPMI 5 mM glucose + 10% dialyzed FBS, 15.4 µM
[33] = RPMI 5 mM glucose + 10% dialyzed FBS, 46.1 µM

| Compound | cell viability [1] | cell viability [2] | cell viability [3] | cell viability [4] | cell viability [5] | cell viability [6] | cell viability [7] | cell viability [8] | cell viability [9] | cell viability [10] | cell viability [11] | cell viability [12] | cell viability [13] | cell viability [14] | cell viability [15] | cell viability [16] | cell viability [17] | cell viability [18] | cell viability [19] | cell viability [20] | cell viability [21] | cell viability [22] | cell viability [23] | cell viability [24] | cell viability [25] | cell viability [26] | cell viability [27] | cell viability [28] | cell viability [29] | cell viability [30] | cell viability [31] | cell viability [32] | cell viability [33] |
| --- | --- | --- | --- | --- | --- | --- | --- | --- | --- | --- | --- | --- | --- | --- | --- | --- | --- | --- | --- | --- | --- | --- | --- | --- | --- | --- | --- | --- | --- | --- | --- | --- | --- |
| COCCCOc1ccnc(C[S+]([O-])c2nc3ccccc3[nH]2)c1C (stereo not given) | 97% | 102% | 110% | 115% | 107% | 113% | 127% | 109% | 102% | 109% | 94.3% | 72.3% | 72.1% | 71.3% | 82.6% | 73.1% | 79% | 78.6% | 76.7% | 65.6% | 81.3% | 75.2% | 97.9% | 110% | 91.3% | 107% | 98.8% | 103% | 109% | 100% | 115% | 108% | 108% |
| CNC(=O)c1ccc(N2C(=S)N(c3ccc(C#N)c(C(F)(F)F)c3)C(=O)C2(C)C)cc1F | 87.9% | 96.9% | 42.8% | 113% | 105% | 113% | 112% | 109% | 117% | 121% | 105% | 71.3% | 74% | 9.73% | 74.8% | 73.9% | 81.9% | 86.3% | 72.2% | 90.1% | 76.1% | 64.1% | 87.7% | 99.6% | 31.2% | 116% | 109% | 111% | 104% | 110% | 104% | 110% | 87.9% |
| FC1=CC=C(CN2\C=C/C=C(/C(=O)N[C@@H](COC3=CC4=C(NC(=O)N4)C=C3)C5=CC=CC=C5)C2=O)C=C1F | 79.5% | 85.6% | 69.3% | 94.2% | 93.8% | 98.8% | 93.3% | 77.5% | 61% | 54.6% | 41.8% | 93.6% | 108% | 85.9% | 119% | 109% | 108% | 93.8% | 90% | 57.1% | 59.4% | 38.5% | 79.8% | 91.2% | 78.5% | 93.4% | 84.5% | 93.1% | 81% | 76.9% | 57.4% | 49.8% | 44.3% |
| CC1=CC=C2\N=C/3N(CC[C@@]3(O)C(=O)C2=C1)C4=CC=CC=C4 | 89.5% | 88.6% | 97.7% | 87.3% | 94.5% | 93% | 96.6% | 95% | 70.5% | 85.8% | 93% | 119% | 120% | 98.3% | 120% | 108% | 121% | 97% | 94.9% | 92.4% | 117% | 107% | 86.8% | 83.2% | 85.6% | 95.7% | 92.6% | 76.6% | 101% | 78.3% | 70.8% | 87.2% | 94.5% |
| CN(CCOc1ccc(NS(C)(=O)=O)cc1)CCc1ccc(NS(C)(=O)=O)cc1 | 102% | 108% | 105% | 107% | 104% | 120% | 111% | 117% | 128% | 93.9% | 131% | 89.9% | 111% | 101% | 110% | 122% | 101% | 119% | 107% | 109% | 79.7% | 94.6% | 85.2% | 95.2% | 102% | 100% | 94% | 100% | 96.9% | 104% | 96.1% | 56.1% | 91.6% |
| CO[C@@H]1[C@@H](OC(N)=O)[C@@H](O)[C@H](OC2=CC=C3\C(=C(NC(=O)C4=CC=C([O-])C(=C4)CC=C(C)C)/C(=O)OC3=C2C)O)OC1(C)C | 106% | 110% | 123% | 97.7% | 118% | 116% | 102% | 101% | 121% | 98.7% | 117% |  |  |  |  |  |  |  |  |  |  |  | 105% | 106% | 109% | 114% | 111% | 115% | 109% | 101% | 107% | 81.5% | 110% |
| C[C@H]1[C@H](O)O[C@@H]2O[C@@]3(C)CC[C@H]4[C@H](C)CC[C@@H]1[C@@]24OO3 | 86.7% | 82.3% | 90.2% | 92.7% | 95.8% | 109% | 105% | 98.3% | 41.5% | 22.4% | 17.9% | 82.3% | 93% | 90.8% | 89.3% | 96.9% | 94.8% | 93.1% | 74.5% | 47.1% | 10.1% | 5.91% | 74.7% | 82.1% | 89% | 82.8% | 76% | 111% | 89.8% | 87.1% | 17.6% | 8.87% | 8.68% |
